Assay results from patent US20240279241A1, “PYRIDO[4,3-D]PYRIMIDINE COMPOUNDS CAPABLE OF INHIBITING KRAS MUTANT PROTEINS” (Redx Pharma PLC, priority 2021, published 2024).
Where two headings read alike, the source gives them in different places.

How the values were obtained:
Assay type in all cases: biochemical
KRAS G13D = target: T1, KRAS G13D (Homo sapiens, UniProt P01116, G13D); experiment: HTRF nucleotide exchange assay (NEA), KRAS G13D; details: recombinant human KRAS G13D aa1-188, 2 nM; lowest class = % inhibition at 10 μM
T1 construct: Recombinant human RAS protein (2 nM); aa1-188 KRAS WT
T1 sequence (P01116 1-188 isoform P01116-2 G13D): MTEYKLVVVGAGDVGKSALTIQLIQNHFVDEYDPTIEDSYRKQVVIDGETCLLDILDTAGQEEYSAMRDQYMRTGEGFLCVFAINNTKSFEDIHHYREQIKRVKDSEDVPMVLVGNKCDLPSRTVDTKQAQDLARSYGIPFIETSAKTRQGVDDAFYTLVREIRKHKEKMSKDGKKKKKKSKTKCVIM
Description: (§1) The capacity of compounds to bind KRAS G12D, other KRAS mutants and wildtype RAS isoforms was quantified using a HTRF nucleotide exchange assay. Recombinant human RAS protein (2 nM; aa1-188 KRAS WT, HRAS WT, NRAS WT, or KRAS containing the containing the G12D, G13D or Q61H amino acid substitutions, or 4 nM KRAS; aa1-188 containing the G12V, G12C, G12A or G12S amino acid substitution, an N-terminal 6×His-tag and leader sequence), and 2 nM Europium-labeled anti-6×His antibody were mixed in assay buffer (10 mM HEPES pH7.3, 150 mM NaCl, 5 mM MgCl2, 0.05% BSA, 0.0025% NP-40 and 100 mM KF) with various concentrations of compound in a 384-well plate and a volume of 5 uL. After a 60-minute incubation at room temperature, 5 ul of 200 nM EDA-GTP-DY647P1 (diluted in assay buffer) was added to the plate. Following 30-minute incubation at room temperature, time-resolved fluorescence was measured on a PerkinElmer Envision plate reader. DMSO (0.3%) and unlabeled […] (1 μM) or equivalent tool compound were used to generate the Max and Min assay signals, respectively. Data was analysed using a four-parameter logistic model to calculate IC50 values, with at least two independent replicates were performed for each compound.

KRAS G12A = target: T2, KRAS G12A (Homo sapiens, UniProt P01116, G12A); experiment: HTRF nucleotide exchange assay (NEA), KRAS G12A
T2 construct: 4 nM KRAS; aa1-188 containing the G12V, G12C, G12A or G12S amino acid substitution
T2 sequence (P01116 1-188 isoform P01116-2 G12A): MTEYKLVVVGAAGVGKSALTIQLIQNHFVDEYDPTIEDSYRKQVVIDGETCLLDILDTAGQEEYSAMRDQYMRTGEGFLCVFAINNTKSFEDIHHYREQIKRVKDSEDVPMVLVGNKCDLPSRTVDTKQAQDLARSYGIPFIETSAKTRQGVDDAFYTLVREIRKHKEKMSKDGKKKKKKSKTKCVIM
Description: as §1

KRAS G12C = target: T3, KRAS G12C (Homo sapiens, UniProt P01116, G12C); experiment: HTRF nucleotide exchange assay (NEA), KRAS G12C
T3 construct: 4 nM KRAS; aa1-188 containing the G12V, G12C, G12A or G12S amino acid substitution
T3 sequence (P01116 1-188 isoform P01116-2 G12C): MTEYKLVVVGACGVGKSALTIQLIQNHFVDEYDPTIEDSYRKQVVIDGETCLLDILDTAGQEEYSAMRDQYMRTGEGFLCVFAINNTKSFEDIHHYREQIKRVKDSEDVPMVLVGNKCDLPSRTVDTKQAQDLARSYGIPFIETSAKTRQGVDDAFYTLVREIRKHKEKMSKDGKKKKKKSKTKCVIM
Description: as §1

KRAS WT = target: T4, KRAS WT (Homo sapiens, UniProt P01116); experiment: HTRF nucleotide exchange assay (NEA), KRAS WT
T4 construct: Recombinant human RAS protein (2 nM); aa1-188 KRAS WT
T4 sequence (P01116 1-188 isoform P01116-2): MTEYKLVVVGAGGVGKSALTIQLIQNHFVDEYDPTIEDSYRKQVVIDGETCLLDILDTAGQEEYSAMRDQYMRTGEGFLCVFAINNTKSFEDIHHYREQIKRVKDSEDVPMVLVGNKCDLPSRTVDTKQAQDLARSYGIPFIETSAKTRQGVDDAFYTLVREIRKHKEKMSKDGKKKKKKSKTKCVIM
How it was run: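 Recombinant human KRAS aa1-188 (N-terminal 6×His-tag), 2 nM for WT/G13D or 4 nM for G12C/G12S, with 2 nM Eu-anti-His antibody, preincubated with compound 60 min at RT in HEPES pH7.3 buffer; 200 nM EDA-GTP-DY647P1 then added, TR-FRET read after 30 min. IC50 by four-parameter fit.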

KRAS G12D = target: T5, KRAS G12D (Homo sapiens, UniProt P01116, G12D); experiment: HTRF nucleotide exchange assay (NEA), KRAS G12D; details: recombinant human KRAS G12D aa1-188, 2 nM; lowest class = % inhibition at 10 μM
T5 construct: Recombinant human RAS protein (2 nM)
T5 sequence (P01116 1-188 isoform P01116-2 G12D): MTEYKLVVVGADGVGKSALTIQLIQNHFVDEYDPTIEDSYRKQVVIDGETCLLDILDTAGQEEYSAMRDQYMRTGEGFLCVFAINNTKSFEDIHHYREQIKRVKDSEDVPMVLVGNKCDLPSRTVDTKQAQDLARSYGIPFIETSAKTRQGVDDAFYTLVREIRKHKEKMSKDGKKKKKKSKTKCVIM
How it was run: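 Compound binding to KRAS G12D was measured by HTRF nucleotide exchange. Recombinant human KRAS G12D (aa1-188, N-terminal 6×His-tag, 2 nM) and 2 nM Europium anti-6×His antibody were combined with compound in 5 uL assay buffer in 384-well plates for 60 minutes at room temperature, then 5 ul of 200 nM EDA-GTP-DY647P1 was added for 30 minutes before time-resolved fluorescence reading.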

KRAS G12S = target: T6, KRAS G12S (Homo sapiens, UniProt P01116, G12S); experiment: HTRF nucleotide exchange assay (NEA), KRAS G12S
T6 construct: 4 nM KRAS; aa1-188 containing the G12V, G12C, G12A or G12S amino acid substitution
T6 sequence (P01116 1-188 isoform P01116-2 G12S): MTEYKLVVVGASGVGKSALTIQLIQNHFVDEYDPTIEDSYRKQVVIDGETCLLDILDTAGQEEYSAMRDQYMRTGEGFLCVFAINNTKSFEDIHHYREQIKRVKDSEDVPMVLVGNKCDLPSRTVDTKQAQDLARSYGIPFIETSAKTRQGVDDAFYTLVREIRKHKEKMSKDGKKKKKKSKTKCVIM
Description: as §1

KRAS G12V = target: T7, KRAS G12V (Homo sapiens, UniProt P01116, G12V); experiment: HTRF nucleotide exchange assay (NEA), KRAS G12V
T7 construct: 4 nM KRAS; aa1-188 containing the G12V, G12C, G12A or G12S amino acid substitution
T7 sequence (P01116 1-188 isoform P01116-2 G12V): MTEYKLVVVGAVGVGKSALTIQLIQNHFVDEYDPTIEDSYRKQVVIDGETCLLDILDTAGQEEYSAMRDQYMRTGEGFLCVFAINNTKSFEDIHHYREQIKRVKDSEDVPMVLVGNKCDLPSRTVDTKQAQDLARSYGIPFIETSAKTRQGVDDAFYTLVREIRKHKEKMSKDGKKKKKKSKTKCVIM
Description: as §1

[1] = recombinant human KRAS G12S aa1-188, 4 nM, lowest class = % inhibition at 10 μM

Row | Structure (SMILES) | IC50 (KRAS G13D) [µM] | IC50 (KRAS G12A) [µM] | IC50 (KRAS G12C) [µM] | IC50 (KRAS WT) [µM] | IC50 (KRAS G12D) [µM] | IC50 (KRAS G12S; [1]) [µM] | IC50 (KRAS G12V) [µM] | IC50 (KRAS G12S) [µM]
1 | Oc1cc(-c2ncc3c(N4CCOC5(CCCC5)C4)nc(OCC45CCCN4CCC5)nc3c2F)c2ccccc2c1 [Example 4, 4-[8-fluoro-2-(1,2,3,5,6,7-hexahydropyrrolizin-8-ylmethoxy)-4-(6-oxa-9-azaspiro[4.5]-decan-9-yl)pyrido[4,3-d]pyrimidin-7-yl]naphthalen-2-ol] | > 10 | 0.1 to 10 | 0.1 to 10 | 0.1 to 10 | 0.1 to 10 | > 10 | 0.1 to 10 | –
2 | Oc1cc(-c2ncc3c(NCC4CCOCC4)nc(OCC45CCCN4CCC5)nc3c2F)c2ccccc2c1 [Example 9, 4-[8-fluoro-2-(1,2,3,5,6,7-hexahydropyrrolizin-8-ylmethoxy)-4-(tetrahydropyran-4-ylmethylamino)pyrido[4,3-d]pyrimidin-7-yl]naphthalen-2-ol] | > 10 | 0.1 to 10 | 0.1 to 10 | 0.1 to 10 | 0.1 to 10 | – | 0.1 to 10 | 0.1 to 10
3 | Oc1cc(-c2ncc3c(N4CCCCCC4)nc(OCC45CCCN4CCC5)nc3c2F)c2ccccc2c1 [Example 17, 4-[4-(azepan-1-yl)-8-fluoro-2-(1,2,3,5,6,7-hexahydropyrrolizin-8-ylmethoxy)pyrido[4,3-d]pyrimidin-7-yl]naphthalen-2-ol] | – | 0.01 to 0.1 | 0.01 to 0.1 | 0.01 to 0.1 | 0.01 to 0.1 | – | 0.01 to 0.1 | 0.01 to 0.1
4 | O=S1(=O)CCN(c2nc(OCC34CCCN3CCC4)nc3c(F)c(-c4cc(O)cc5ccccc45)ncc23)CC1 [Example 22, 4-[4-(1,1-dioxo-1,4-thiazinan-4-yl)-8-fluoro-2-(1,2,3,5,6,7-hexahydropyrrolizin-8-ylmethoxy)pyrido[4,3-d]pyrimidin-7-yl]naphthalen-2-ol] | > 10 | 0.1 to 10 | – | 0.1 to 10 | 0.1 to 10 | – | – | 0.1 to 10
5 | CSCCCN(C)c1nc(OCC23CCCN2CCC3)nc2c(F)c(-c3cc(O)cc4ccccc34)ncc12 [Example 27, 4-[8-fluoro-2-(1,2,3,5,6,7-hexahydropyrrolizin-8-ylmethoxy)-4-[methyl(3-methylsulfanylpropyl)amino]pyrido[4,3-d]pyrimidin-7-yl]naphthalen-2-ol] | > 10 | 0.1 to 10 | 0.1 to 10 | 0.1 to 10 | 0.1 to 10 | – | – | 0.1 to 10
6 | COCC(C)CNc1nc(OCC23CCCN2CCC3)nc2c(F)c(-c3cc(O)cc4ccccc34)ncc12 (stereo not drawn) [Example 31, 4-[8-fluoro-2-(1,2,3,5,6,7-hexahydropyrrolizin-8-ylmethoxy)-4-[(3-methoxy-2-methyl-propyl)amino]pyrido [4,3-d]pyrimidin-7-yl]naphthalen-2-ol] | > 10 | 0.1 to 10 | – | 0.1 to 10 | 0.1 to 10 | – | – | 0.1 to 10
7 | COC(C)CCNc1nc(OCC23CCCN2CCC3)nc2c(F)c(-c3cc(O)cc4ccccc34)ncc12 (stereo not drawn) [Example 32, 4-[8-fluoro-2-(1,2,3,5,6,7-hexahydropyrrolizin-8-ylmethoxy)-4-(3-methoxybutylamino)pyrido[4,3-d]pyrimidin-7-yl]naphthalen-2-ol] | > 10 | 0.1 to 10 | – | 0.1 to 10 | 0.1 to 10 | – | – | 0.1 to 10
8 | COCC1CCN(c2nc(OCC34CCCN3CCC4)nc3c(F)c(-c4cc(O)cc5ccccc45)ncc23)C1 (stereo not drawn) [Example 33, 4-[8-fluoro-2-(1,2,3,5,6,7-hexahydropyrrolizin-8-ylmethoxy)-4-[3-(methoxymethyl)pyrrolidin-1-yl]pyrido [4,3-d]pyrimidin-7-yl]naphthalen-2-ol] | > 10 | 0.1 to 10 | – | 0.1 to 10 | 0.1 to 10 | > 10 | – | –
9 | Oc1cc(-c2ncc3c(NC4CCCCCC4)nc(OCC45CCCN4CCC5)nc3c2F)c2ccccc2c1 [Example 36, 4-[4-(cycloheptylamino)-8-fluoro-2-(1,2,3,5,6,7-hexahydropyrrolizin-8-ylmethoxy)pyrido [4,3-d]pyrimidin-7-yl]naphthalen-2-ol] | > 10 | 0.1 to 10 | – | 0.1 to 10 | 0.1 to 10 | > 10 | – | –
10 | Oc1cc(-c2ncc3c(N4CCC(O)CC4)nc(OCC45CCCN4CCC5)nc3c2F)c2ccccc2c1 [Example 41, 1-[8-fluoro-2-(1,2,3,5,6,7-hexahydropyrrolizin-8-ylmethoxy)-7-(3-hydroxy-1-naphthyl)pyrido[4,3-d]pyrimidin-4-yl]piperidin-4-ol] | – | 0.01 to 0.1 | 0.01 to 0.1 | 0.01 to 0.1 | 0.01 to 0.1 | – | 0.01 to 0.1 | 0.1 to 10
11 | Oc1cc(-c2ncc3c(N4CC5CCC(C5)C4)nc(OCC45CCCN4CCC5)nc3c2F)c2ccccc2c1 [Example 47, 4-[4-(3-azabicyclo[3.2.1]octan-3-yl)-8-fluoro-2-(1,2,3,5,6,7-hexahydropyrrolizin-8-ylmethoxy)pyrido [4,3-d]pyrimidin-7-yl]naphthalen-2-ol] | – | 0.01 to 0.1 | 0.01 to 0.1 | 0.01 to 0.1 | 0.1 to 10 | – | 0.01 to 0.1 | 0.1 to 10
12 | Oc1cc(-c2ncc3c(N4CCCC5(COC5)C4)nc(OCC45CCCN4CCC5)nc3c2F)c2ccccc2c1 [Example 52, 4-[8-fluoro-2-(1,2,3,5,6,7-hexahydropyrrolizin-8-ylmethoxy)-4-(2-oxa-8-azaspiro[3.5]nonan-8-yl)pyrido[4,3-d]pyrimidin-7-yl]naphthalen-2-ol] | – | 0.01 to 0.1 | 0.01 to 0.1 | 0.01 to 0.1 | 0.01 to 0.1 | – | 0.01 to 0.1 | 0.1 to 10
13 | O=S1(=O)CCN(c2nc(OCC34CCCN3CCC4)nc3c(F)c(-c4cc(O)cc5ccccc45)ncc23)CCN1 [Example 59, 4-[4-(1,1-dioxo-1,2,5-thiadiazepan-5-yl)-8-fluoro-2-(1,2,3,5,6,7-hexahydropyrrolizin-8-ylmethoxy)pyrido [4,3-d]pyrimidin-7-yl]naphthalen-2-ol] | – | 0.1 to 10 | 0.1 to 10 | 0.1 to 10 | 0.1 to 10 | – | 0.1 to 10 | 0.1 to 10
14 | N#CC1CCN(c2nc(OCC34CCCN3CCC4)nc3c(F)c(-c4cc(O)cc5ccccc45)ncc23)CC1 [Example 65, 1-[8-fluoro-2-(1,2,3,5,6,7-hexahydropyrrolizin-8-ylmethoxy)-7-(3-hydroxy-1-naphthyl)pyrido[4,3-d]pyrimidin-4-yl]piperidine-4-carbonitrile] | – | 0.01 to 0.1 | 0.01 to 0.1 | 0.1 to 10 | 0.1 to 10 | – | 0.01 to 0.1 | 0.1 to 10
15 | Oc1cc(-c2ncc3c(N4CCCC(O)CC4)nc(OCC45CCCN4CCC5)nc3c2F)c2ccccc2c1 (stereo not drawn) [Example 70, 1-[8-fluoro-2-(1,2,3,5,6,7-hexahydropyrrolizin-8-ylmethoxy)-7-(3-hydroxy-1-naphthyl)pyrido[4,3-d]pyrimidin-4-yl]azepan-4-ol] | – | 0.01 to 0.1 | 0.01 to 0.1 | 0.01 to 0.1 | ≤ 0.01 | – | 0.01 to 0.1 | 0.1 to 10
16 | [O-][S+]1CCCN(c2nc(OCC34CCCN3CCC4)nc3c(F)c(-c4cc(O)cc5ccccc45)ncc23)CC1 (stereo not drawn) [Example 90, 4-[8-fluoro-2-(1,2,3,5,6,7-hexahydropyrrolizin-8-ylmethoxy)-4-(1-oxo-1,4-thiazepan-4-yl)pyrido[4,3-d]pyrimidin-7-yl]naphthalen-2-ol] | – | 0.01 to 0.1 | 0.01 to 0.1 | 0.01 to 0.1 | ≤ 0.01 | – | 0.01 to 0.1 | 0.1 to 10
